Values joined by “and” are separate entries in the source; they are usually repeats but may differ in a detail not shown here. Equal entries are not always repeated.
Tested on: DSS-induced colitis
Test: DSS-induced colitis mouse model (experimental ulcerative colitis)
Format: in vivo
Parameters: Colon wet weight: unit not given here
Procedure: In this Example, mouse models to which dextran sulfate sodium salt (DSS) is used will be described as colitis models. When DSS is administered by being mixed in drinking water of the mouse, an experimental ulcerative colitis model similar to human ulcerative colitis in terms of symptoms such as suppression of body weight increase, blood in stools, and anemia and formation of colon erosion and further lacking intestinal lesion was build (Non-Patent Literature 3). A suppression effect of Compound X on colitis in such a model as the representative colitis model was examined. For the evaluation items, recovery from diarrhea and body weight loss by colitis, and the length and weight of the colon were examined as changes in colon properties, which are widely known to occur by DSS-induced colitis.
For treatment, C57BL/6J, male mice were purchased from CHARLES RIVER LABORATORIES JAPAN, INC. in accordance with previous literature (Non-Patent Literature 2) and 5-week old mice with no abnormal general conditions during quarantine and acclimation period were used for the experiment. After acclimation, the animals were divided in such a way as to be 1 mouse per cage. DSS used in the experiment having a molecular weight of from 36,000 to 50,000 Da was purchased from MP Bio Japan. DSS was added to tap water in such a way as to be 3% and suspended for causing colitis. The suspension was prepared once every 3 days and freely provided to each of the mice as water supply. A solution from which DSS was removed was provided as water supply to a non-pathological control group.
After group division, each of the test substances of Table 1 was suspended in a solution of 0.5% sodium carboxymethyl cellulose (hereinafter, CMC, Nacalai Tesque Inc.) in such a way as to be each treatment of Table 1 and orally administered once daily. […] These control groups, Groups 1 and 2, were orally administered, as the test substance, with the 0.5% CMC solution used as the medium.
Drinking water after the group division was typical water for drinking.
The test started with 6 mice in Group No. 1 and 10 mice each in Group Nos. 2 to 6.
Body weights were measured on the DSS administration starting day (day −5), DSS administration last day (day 0), on day 3, day 5, day 8, and day 10 of test substance administration.
The therapeutic effect was evaluated by observing changes in blood in stools caused by enteritis as the body weight recovery alone can be considered that the body weight increase might have been promoted simply by the growth. Mice feces were observed on the DSS administration starting day (day-5), DSS administration last day (day 0), on day 3, day 5, day 8, and day 10 of test substance administration and scored in accordance with the criteria of Table 2.
For evaluating the therapeutic effect of Compound X, the length and weight of the colon were measured. The mice were euthanized under anesthesia on day 10 of test substance administration and dissected to remove the colon. The removed colon was quickly measured for a length in a relaxed state. Subsequently, feces in the intestinal tract were removed and sufficiently washed with phosphate buffered saline (Wako Pure Chemical Industries, Ltd.) and measured for a wet weight.

[1] = DSS + 1 mg/kg/day oral, day 10, mean ± SD
[2] = DSS + 10 mg/kg/day oral, day 10, mean ± SD
[3] = DSS + 100 mg/kg/day oral, day 10, mean ± SD

CC1=C(/C=C/C(C)=C/C=C/C(C)=C/C=C/C=C(C)/C=C/C=C(C)/C=C/C2=C(C)C(=O)[C@@H](OC(=O)CNC(=O)NCCCC(=O)O)CC2(C)C)C(C)(C)C[C@H](OC(=O)CNC(=O)NCCCC(=O)O)C1=O.NCCCC[C@H](N)C(=O)O.NCCCC[C@H](N)C(=O)O [Compound X, 4-(3-{4-[18-(4(S)-[3-(3-Carboxypropyl)ureidoacetoxy]-2,6,6-trimethyl-3-oxocyclohexa-1-enyl)-3,7,12,16-tetramethyloctadeca-1(E),3(E),5(E),7(E),9(E),11(E),13(E),15(E),17(E)-nonaenyl]-3,5,5-trimethyl-2-oxocyclohex-3-enyl-1(S)-oxycarbonylmethyl}ureido)butyric acid dilysine salt]
Blood feces score versus DSS administration group (100 mg/kg/day oral, day 5 of test substance administration, in words): improved blood feces score | Body weight recovery compared with the DSS administration only (100 mg/kg/day oral, in words): body weight recovery was even further significant | Body weight (DSS + 1 mg/kg/day oral, day 0 (DSS last day), mean ± SD): 20.3 ± 0.8 g | Fecal scoring average value (DSS + 1 mg/kg/day oral, day 0 (DSS last day), score 0-3, mean ± SD): 1.2 ± 0.4 | Fecal scoring average value (DSS + 1 mg/kg/day oral, day 3, score 0-3, mean ± SD): 1.7 ± 0.8 | Body weight (DSS + 1 mg/kg/day oral, day 3 of administration, mean ± SD): 14.7 ± 1.3 g | Body weight (DSS + 1 mg/kg/day oral, day 5, mean ± SD): 15.1 ± 1.5 g | Fecal scoring average value (DSS + 1 mg/kg/day oral, day 5, score 0-3, mean ± SD): 1.7 ± 0.6 | Body weight (DSS + 1 mg/kg/day oral, day 8, mean ± SD): 18.0 ± 2.4 g | Fecal scoring average value (DSS + 1 mg/kg/day oral, day 8, score 0-3, mean ± SD): 0.0 ± 0.0 | Body weight [1]: 19.4 ± 2.2 g | Colon wet weight [1]: 269.0 ± 8.4 | Fecal scoring average value (DSS + 1 mg/kg/day oral, day 10, score 0-3, mean ± SD): 0.0 ± 0.0 | Colon length (DSS + 1 mg/kg/day oral, day 10 of administration, mean ± SD, 1 mg/kg/day): 6.72 cm and 6.72 ± 0.28 cm | Body weight (DSS + 1 mg/kg/day oral, day −5 (DSS start, before test substance), C57BL/6J mice, mean ± SD): 20.3 ± 0.9 g | Fecal scoring average value (DSS + 1 mg/kg/day oral, day −5 (before test substance), score 0-3 per Table 2, mean ± SD): 0.0 ± 0.0 | Body weight (DSS + 10 mg/kg/day oral, day 0 (DSS last day), mean ± SD): 18.9 ± 1.1 g | Fecal scoring average value (DSS + 10 mg/kg/day oral, day 0 (DSS last day), score 0-3, mean ± SD): 1.2 ± 0.4 | Body weight (DSS + 10 mg/kg/day oral, day 3, mean ± SD): 14.9 ± 1.4 g | Fecal scoring average value (DSS + 10 mg/kg/day oral, day 3, score 0-3, mean ± SD): 1.3 ± 0.5 | Body weight (DSS + 10 mg/kg/day oral, day 5, mean ± SD): 15.9 ± 1.9 g | Fecal scoring average value (DSS + 10 mg/kg/day oral, day 5, score 0-3, mean ± SD): 1.7 ± 0.5 | Body weight (DSS + 10 mg/kg/day oral, day 8, mean ± SD): 18.5 ± 2.1 g | Fecal scoring average value (DSS + 10 mg/kg/day oral, day 8, score 0-3, mean ± SD): 0.0 ± 0.0 | Body weight [2]: 19.8 ± 1.7 g | Colon length [2]: 6.32 ± 0.16 cm | Colon wet weight [2]: 255.0 ± 12.4 | Fecal scoring average value (DSS + 10 mg/kg/day oral, day 10, score 0-3, mean ± SD): 0.0 ± 0.0 | Body weight (DSS + 10 mg/kg/day oral, day −5 (DSS start, before test substance), mean ± SD): 20.1 ± 0.9 g | Fecal scoring average value (DSS + 10 mg/kg/day oral, day −5 (before test substance), score 0-3, mean ± SD): 0.0 ± 0.0 | Body weight (DSS + 100 mg/kg/day oral, day 0 (DSS last day), mean ± SD): 19.0 ± 1.0 g | Fecal scoring average value (DSS + 100 mg/kg/day oral, day 0 (DSS last day), score 0-3, mean ± SD): 1.0 ± 0.0 | Body weight (DSS + 100 mg/kg/day oral, day 3, mean ± SD): 15.2 ± 1.8 g | Fecal scoring average value (DSS + 100 mg/kg/day oral, day 3, score 0-3, mean ± SD): 1.7 ± 0.8 | Body weight (DSS + 100 mg/kg/day oral, day 5, mean ± SD): 16.7 ± 2.2 g | Fecal scoring average value (DSS + 100 mg/kg/day oral, day 5, score 0-3, mean ± SD): 1.0 ± 0.0 | Body weight (DSS + 100 mg/kg/day oral, day 8, mean ± SD): 19.8 ± 0.9 g | Fecal scoring average value (DSS + 100 mg/kg/day oral, day 8, score 0-3, mean ± SD): 0.0 ± 0.0 | Colon wet weight (DSS + 100 mg/kg/day oral, day 10): 238.6 | Body weight [3]: 21.0 ± 0.7 g | Colon wet weight [3]: 238.6 ± 11.3 | Colon length (DSS + 100 mg/kg/day oral, day 10, mean ± SD, 100 mg/kg/day): 6.80 cm and 6.80 ± 0.12 cm | Fecal scoring average value (DSS + 100 mg/kg/day oral, day 10, score 0-3, mean ± SD): 0.0 ± 0.0 | Body weight (DSS + 100 mg/kg/day oral, day −5 (DSS start, before test substance), mean ± SD): 20.1 ± 0.9 g | Fecal scoring average value (DSS + 100 mg/kg/day oral, day −5 (before test substance), score 0-3, mean ± SD): 0.0 ± 0.0 | Colon length compared with DSS group (Group Nos. 3 to 5 (1, 10, 100 mg/kg/day) and Group No. 6 (50 mg/kg/day), in words): longer length of the colon than DSS group | Colon wet weight compared with DSS group (all treated groups of Table 5, in words): suppressed weight increases compared with DSS group
